The results in this text go back to US10676477B2, “Factor XIa macrocycle inhibitors bearing a non-aromatic P2' group” (BRISTOL-MYERS SQUIBB COMPANY, priority 2015, dated 2020).

Structures are written as SMILES. Structures can show the parent of a compound that is named as a salt.

For one assay, the target named is T1, human plasma kallikrein (Homo sapiens, UniProt P03952).
T1 construct: purchased Enzyme Research Laboratories
Put plainly: Plasma kallikrein enzyme inhibition assay (chromogenic substrate S-2302), Ki. The class given is biochemical. Particulars: purified human plasma kallikrein, substrate S-2302, pH 7.5. The protocol: (§1) The effectiveness of compounds of the present invention as inhibitors of the coagulation Factors XIa, VIIa, IXa, Xa, XIIa, plasma kallikrein chymotrypsin, trypsin, or thrombin, can be determined using a relevant purified serine protease, respectively, and an appropriate synthetic substrate. The rate of hydrolysis of the chromogenic or fluorogenic substrate by the relevant serine protease was measured both in the absence and presence of compounds of the present invention. […] A decrease in the rate of absorbance or fluorescence change in the presence of inhibitor is indicative of enzyme inhibition. Such methods are known to one skilled in the art. The results of this assay are expressed as the inhibitory constant, Ki.
Plasma kallikrein determinations were made in 0.1 M sodium phosphate buffer at a pH of 7.5 containing 0.1-0.2 M sodium chloride and 0.5% PEG 8000. Determinations were made using purified human plasma kallikrein (Enzyme Research Laboratories) at a final assay concentration of 200 pM and the synthetic substrate S-2302 (H-(D)-Pro-Phe-Arg-pNA; CHROMOGENIX®) at a concentration of 0.00008-0.0004 M.
(§2) The Michaelis constant, Km, for substrate hydrolysis by each protease, was determined at 25° C. or 37° C. in the absence of inhibitor. Values of Ki were determined by allowing the protease to react with the substrate in the presence of the inhibitor. Reactions were allowed to go for periods of 20-180 minutes (depending on the protease) and the velocities (rate of absorbance or fluorescence change versus time) were measured. The following relationships were used to calculate Ki values: (Vmax*S)/(Km+S) (vo−vs)/vs=I/(Ki*(1+S/Km)) for a competitive inhibitor with one binding site; or vs/vo=A+((B−A)/(1+(IC50/(I)^n)); and Ki=IC50/(1+S/Km) for a competitive inhibitor where: […]

The target in a further assay is T2, human Factor XIa (Homo sapiens, UniProt P03951).
T2 construct: purchased Haematologic Technologies
Put plainly: Factor XIa enzyme inhibition assay (chromogenic substrate S-2366), Ki. It counts as biochemical. Particulars: purified human Factor XIa, substrate S-2366, pH 7.4. The protocol: as §1
Factor XIa determinations were made in 50 mM HEPES buffer at pH 7.4 containing 145 mM NaCl, 5 mM KCl, and 0.1% PEG 8000 (polyethylene glycol; JT Baker or Fisher Scientific). Determinations were made using purified human Factor XIa at a final concentration of 25-200 pM (Haematologic Technologies) and the synthetic substrate S-2366 (pyroGlu-Pro-Arg-pNA; CHROMOGENIX® or AnaSpec) at a concentration of 0.0002-0.001 M.
as §2

T1 sequence (P03952 391-638 limits assumed): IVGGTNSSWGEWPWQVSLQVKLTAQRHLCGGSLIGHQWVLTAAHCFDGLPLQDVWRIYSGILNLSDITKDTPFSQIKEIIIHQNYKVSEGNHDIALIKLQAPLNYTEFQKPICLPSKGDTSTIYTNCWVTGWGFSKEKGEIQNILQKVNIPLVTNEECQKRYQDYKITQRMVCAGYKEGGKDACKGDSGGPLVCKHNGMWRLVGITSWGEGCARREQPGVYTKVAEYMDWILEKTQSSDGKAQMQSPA
T1 sequence (P03952 20-390 partner limits assumed): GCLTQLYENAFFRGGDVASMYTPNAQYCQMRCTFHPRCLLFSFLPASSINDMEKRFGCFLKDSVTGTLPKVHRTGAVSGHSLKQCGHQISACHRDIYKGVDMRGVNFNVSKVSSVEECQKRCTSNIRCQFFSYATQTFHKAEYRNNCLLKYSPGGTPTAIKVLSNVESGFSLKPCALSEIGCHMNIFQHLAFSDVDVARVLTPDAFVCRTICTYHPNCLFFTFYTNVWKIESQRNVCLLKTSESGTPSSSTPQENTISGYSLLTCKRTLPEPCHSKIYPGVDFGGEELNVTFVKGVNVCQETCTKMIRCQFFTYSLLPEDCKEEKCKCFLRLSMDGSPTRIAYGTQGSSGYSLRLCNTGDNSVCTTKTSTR
T2 sequence (P03951 388-625 limits assumed): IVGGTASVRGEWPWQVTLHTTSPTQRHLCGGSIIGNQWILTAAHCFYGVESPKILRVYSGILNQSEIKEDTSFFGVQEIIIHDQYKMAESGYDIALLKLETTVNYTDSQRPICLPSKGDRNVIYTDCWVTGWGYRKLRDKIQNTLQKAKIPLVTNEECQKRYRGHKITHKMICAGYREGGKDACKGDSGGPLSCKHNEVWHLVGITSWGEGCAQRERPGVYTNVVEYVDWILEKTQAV
T2 sequence (P03951 19-387 partner limits assumed): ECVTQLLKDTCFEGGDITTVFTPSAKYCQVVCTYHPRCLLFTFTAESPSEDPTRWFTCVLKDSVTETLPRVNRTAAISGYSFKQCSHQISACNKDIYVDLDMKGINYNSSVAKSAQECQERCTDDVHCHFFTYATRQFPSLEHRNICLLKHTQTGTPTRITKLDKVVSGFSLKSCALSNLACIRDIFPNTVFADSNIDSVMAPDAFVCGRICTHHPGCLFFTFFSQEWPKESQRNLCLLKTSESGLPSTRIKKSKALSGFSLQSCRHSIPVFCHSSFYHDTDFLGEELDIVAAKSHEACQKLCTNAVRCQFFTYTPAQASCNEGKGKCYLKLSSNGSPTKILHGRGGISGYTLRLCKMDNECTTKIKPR

As to `O=C1NCCCCC[C@H](n2cnc(-c3cc(Cl)ccc3-n3cc(Cl)nn3)cc2=O)c2cccc(c2)N2CCNC[C@H]12` [Example 9, (7R,15S)-15-{4-[5-chloro-2-(4-chloro-1H-1,2,3-triazol-1-yl)phenyl]-6-oxo-1,6-dihydropyrimidin-1-yl}-2,5,9-triazatricyclo[14.3.1.0^2,7]icosa-1(20),16,18-trien-8-one hydrochloride], the Ki at human plasma kallikrein is 1820 nM; at human Factor XIa it was 11 nM.

As to `COC(=O)N1CCN2c3cccc(c3)[C@@H](n3cnc(-c4cc(Cl)ccc4-n4cc(Cl)nn4)cc3=O)CCCCCNC(=O)[C@H]2C1` [Example 10, methyl (7R,15S)-15-{4-[5-chloro-2-(4-chloro-1H-1,2,3-triazol-1-yl)phenyl]-6-oxo-1,6-dihydropyrimidin-1-yl}-8-oxo-2,5,9-triazatricyclo[14.3.1.0^2,7]icosa-1(20),16,18-triene-5-carboxylate], the Ki at human plasma kallikrein amounted to 862 nM; at human Factor XIa it was 5 nM.

On to `CC(C)(C)OC(=O)CN1CCN2c3cccc(c3)[C@@H](n3cnc(-c4cc(Cl)ccc4-n4cc(Cl)nn4)cc3=O)CCCCCNC(=O)[C@H]2C1` [Example 11, tert-butyl 2-[(7R,15S)-15-{4-[5-chloro-2-(4-chloro-1H-1,2,3-triazol-1-yl)phenyl]-6-oxo-1,6-dihydropyrimidin-1-yl}-8-oxo-2,5,9-triazatricyclo[14.3.1.0^2,7]icosa-1(20),16,18-trien-5-yl]acetate trifluoromethylacetate], for which the Ki was determined as 460 nM on human plasma kallikrein and 11 nM on human Factor XIa.

On to `CC(=O)N1CCN2c3cccc(c3)[C@@H](n3cnc(-c4cc(Cl)ccc4-n4cc(Cl)nn4)cc3=O)CCCCCNC(=O)[C@H]2C1` [Example 12, (7R,15S)-5-acetyl-15-{4-[5-chloro-2-(4-chloro-1H-1,2,3-triazol-1-yl)phenyl]-6-oxo-1,6-dihydropyrimidin-1-yl}-2,5,9-triazatricyclo[14.3.1.0^2,7]icosa-1(20),16,18-trien-8-one], for which the figures for the inhibition constant Ki at human plasma kallikrein and at human Factor XIa were 1050 nM and 6 nM, respectively.

Take `CN1CCN2c3cccc(c3)[C@@H](n3cnc(-c4cc(Cl)ccc4-n4cc(Cl)nn4)cc3=O)CCCCCNC(=O)[C@H]2C1` [Example 13, (7R,15S)-15-{4-[5-chloro-2-(4-chloro-1H-1,2,3-triazol-1-yl)phenyl]-6-oxo-1,6-dihydropyrimidin-1-yl}-5-methyl-2,5,9-triazatricyclo[14.3.1.0^2,7]icosa-1(20),16,18-trien-8-one, trifluoromethyl acetate]: the results for the Ki at human plasma kallikrein and at human Factor XIa were 441 nM and 10 nM, respectively.

Regarding `O=C(O)CN1CCN2c3cccc(c3)[C@@H](n3cnc(-c4cc(Cl)ccc4-n4cc(Cl)nn4)cc3=O)CCCCCNC(=O)[C@H]2C1` [Example 14, 2-[(7R,15S)-15-{4-[5-chloro-2-(4-chloro-1H-1,2,3-triazol-1-yl)phenyl]-6-oxo-1,6-dihydropyrimidin-1-yl}-8-oxo-2,5,9-triazatricyclo[14.3.1.0^2,7]icosa-1(20),16,18-trien-5-yl]acetic acid trifluoromethyl acetate], the Ki on human plasma kallikrein was 107 nM; at human Factor XIa it was 5 nM.

For `CC(C)(C)OC(=O)N1CCN2c3cccc(c3)[C@@H](n3cnc(-c4cc(Cl)ccc4-n4cc(Cl)nn4)cc3=O)CCCCNC(=O)[C@H]2C1` [Example 15, tert-butyl (7R,14S)-14-{4-[5-chloro-2-(4-chloro-1H-1,2,3-triazol-1-yl)phenyl]-6-oxo-1,6-dihydropyrimidin-1-yl}-8-oxo-2,5,9-triazatricyclo[13.3.1.0^2,7]nonadeca-1(19),15,17-triene-5-carboxylate, trifluoromethylacetate], the Ki came out at 3430 nM on human plasma kallikrein and 492 nM at human Factor XIa.

For `O=C1NCCCCC[C@H](n2cnc(-c3cc(Cl)ccc3-n3cc(Cl)nn3)cc2=O)c2cccc(c2)N2CCN(C3COC3)C[C@H]12` [Example 16, (7R,15S)-15-{4-[5-chloro-2-(4-chloro-1H-1,2,3-triazol-1-yl)phenyl]-6-oxo-1,6-dihydropyrimidin-1-yl}-5-(oxetan-3-yl)-2,5,9-triazatricyclo[14.3.1.0^2,7]icosa-1(20),16,18-trien-8-one trifluoromethylacetate], the results for the inhibitory constant (Ki) at human plasma kallikrein and on human Factor XIa were 528 nM and 13 nM, respectively.

On to `CCOC(=O)c1cnc(N2CCN3c4cccc(c4)[C@@H](n4cnc(-c5cc(Cl)ccc5-n5cc(Cl)nn5)cc4=O)CCCCCNC(=O)[C@H]3C2)o1` [Example 17, ethyl 2-[(7R,15S)-15-{4-[5-chloro-2-(4-chloro-1H-1,2,3-triazol-1-yl)phenyl]-6-oxo-1,6-dihydropyrimidin-1-yl}-8-oxo-2,5,9-triazatricyclo[14.3.1.0^2,7]icosa-1(20),16,18-trien-5-yl]-1,3-oxazole-5-carboxylate trifluoromethylacetate], for which the figures for the Ki at human plasma kallikrein and at human Factor XIa were 1220 nM and 16 nM, respectively.

`Cc1c(C(=O)N[C@H]2CCCCCNC(=O)[C@H]3CN(C(=O)OC(C)(C)C)CCN3c3cccc2c3)cnn1-c1cccc(Cl)c1F` [Example 18, tert-butyl (7R,15S)-15-[1-(3-chloro-2-fluorophenyl)-5-methyl-1H-pyrazole-4-amido]-8-oxo-2,5,9-triazatricyclo[14.3.1.0^2,7]icosa-1(20),16,18-triene-5-carboxylate, trifluoromethylacetate]: the Ki on human plasma kallikrein is 3830 nM; on human Factor XIa, 3310 nM.

Turning to `CC(C)(C)OC(=O)N1CCN2c3cccc(c3)[C@@H](n3cnc(-c4c(-n5cc(Cl)nn5)ccc(Cl)c4F)cc3=O)CCCCCNC(=O)[C@H]2C1` [Example 19, tert-butyl (7R,15S)-15-{4-[3-chloro-6-(4-chloro-1H-1,2,3-triazol-1-yl)-2-fluorophenyl]-6-oxo-1,6-dihydropyrimidin-1-yl}-8-oxo-2,5,9-triazatricyclo[14.3.1.0^2,7]icosa-(20),16,18-triene-5-carboxylate trifluoromethylacetate], the figures for the Ki at human plasma kallikrein and at human Factor XIa were 345 nM and 5 nM, respectively.

For `Cc1c(C(=O)N[C@H]2CCCCCNC(=O)[C@H]3CNCCN3c3cccc2c3)cnn1-c1cccc(Cl)c1F` [Example 20, 1-(3-chloro-2-fluorophenyl)-5-methyl-N-[(7R,15S)-8-oxo-2,5,9-triazatricyclo[14.3.1.0^2,7]icosa-1(20),16,18-trien-15-yl]-1H-pyrazole-4-carboxamide hydrochloride], the results for the inhibition constant (Ki) at human plasma kallikrein and on human Factor XIa were 2550 nM and 1310 nM, respectively.

For `COC(=O)N1CCN2c3cccc(c3)[C@@H](NC(=O)c3cnn(-c4cccc(Cl)c4F)c3C)CCCCCNC(=O)[C@H]2C1` [Example 21, methyl (7R,15S)-15-[1-(3-chloro-2-fluorophenyl)-5-methyl-1H-pyrazole-4-amido]-8-oxo-2,5,9-triazatricyclo[14.3.1.0^2,7]icosa-1(20),16,18-triene-5-carboxylate, trifluoromethyl acetate], the Ki on human plasma kallikrein turned out to be 9170 nM; at human Factor XIa it was 1060 nM.

`COC(=O)N1CCN2c3cccc(c3)[C@@H](N3CCC(c4cc(Cl)ccc4-n4cc(Cl)nn4)=CC3=O)CCCCCNC(=O)[C@H]2C1` [Example 22, methyl (7R,15S)-15-{4-[5-chloro-2-(4-chloro-1H-1,2,3-triazol-1-yl)phenyl]-6-oxo-1,2,3,6-tetrahydropyridin-1-yl}-8-oxo-2,5,9-triazatricyclo[14.3.1.0^2,7]icosa-1(20),16,18-triene-5-carboxylate trifluoromethyl acetate]: the Ki was found to be 189 nM on human plasma kallikrein and 5 nM at human Factor XIa.

For the molecule `COC(=O)NC[C@H]1Nc2cccc(c2)[C@@H](n2cnc(-c3cc(Cl)ccc3-n3cc(Cl)nn3)cc2=O)CCCCCNC1=O` [Example 23, methyl N-{[(3R,11S)-11-{4-[5-chloro-2-(4-chloro-1H-1,2,3-triazol-1-yl)phenyl]-6-oxo-1,6-dihydropyrimidin-1-yl}-4-oxo-2,5-diazabicyclo[10.3.1]hexadeca-1(16),12,14-trien-3-yl]methyl}carbamate trifluoromethyl acetate], the Ki on human plasma kallikrein was found to be 2720 nM; on human Factor XIa, 27 nM.

With `O=C(NC[C@H]1Nc2cccc(c2)[C@@H](n2cnc(-c3cc(Cl)ccc3-n3cc(Cl)nn3)cc2=O)CCCCCNC1=O)c1cccnc1` [Example 24, N-{[(3R,11S)-11-{4-[5-chloro-2-(4-chloro-1H-1,2,3-triazol-1-yl)phenyl]-6-oxo-1,6-dihydropyrimidin-1-yl}-4-oxo-2,5-diazabicyclo[10.3.1]hexadeca-1(16),12,14-trien-3-yl]methyl}pyridine-3-carboxamide trifluoromethylacetate], the Ki at human plasma kallikrein was 5200 nM; on human Factor XIa, 62 nM.

For orientation: Ki means a measure of affinity in units of concentration, obtained from inhibition or displacement. High values mean a looser hold on the target, low ones a stronger hold on the target.
